ChEMBL document CHEMBL3877259, “Design and discovery of 4-anilinoquinazoline-urea derivatives as dual TK inhibitors of EGFR and VEGFR-2” (Eur J Med Chem, 2017)

Columns and labels:
[1] = Antiproliferative activity against human H460 cells measured after 48 hrs by MTT assay; type: functional, cell-based; conditions: NCI-H460, 48 h
[2] = Antiproliferative activity against human MCF7 cells measured after 48 hrs by MTT assay; type: functional, cell-based; conditions: MCF7, 48 h
[3] = Antiproliferative activity against human HT-29 cells measured after 48 hrs by MTT assay; type: functional, cell-based; conditions: HT-29, 48 h
[4] = biological target: Vascular endothelial growth factor receptor 2 (Homo sapiens, UniProt P35968); test: Inhibition of N-terminal GST-tagged human VEGFR-2 cytoplasmic domain (790 to 1356 residues) expressed in baculovirus expression system preincubated for 10 mins followed by FAM-labelled peptide substrate addition by caliper mobility shift assay
[5] = biological target: Epidermal growth factor receptor (Homo sapiens, UniProt P00533)
Sequence of Epidermal growth factor receptor (P00533 whole entry): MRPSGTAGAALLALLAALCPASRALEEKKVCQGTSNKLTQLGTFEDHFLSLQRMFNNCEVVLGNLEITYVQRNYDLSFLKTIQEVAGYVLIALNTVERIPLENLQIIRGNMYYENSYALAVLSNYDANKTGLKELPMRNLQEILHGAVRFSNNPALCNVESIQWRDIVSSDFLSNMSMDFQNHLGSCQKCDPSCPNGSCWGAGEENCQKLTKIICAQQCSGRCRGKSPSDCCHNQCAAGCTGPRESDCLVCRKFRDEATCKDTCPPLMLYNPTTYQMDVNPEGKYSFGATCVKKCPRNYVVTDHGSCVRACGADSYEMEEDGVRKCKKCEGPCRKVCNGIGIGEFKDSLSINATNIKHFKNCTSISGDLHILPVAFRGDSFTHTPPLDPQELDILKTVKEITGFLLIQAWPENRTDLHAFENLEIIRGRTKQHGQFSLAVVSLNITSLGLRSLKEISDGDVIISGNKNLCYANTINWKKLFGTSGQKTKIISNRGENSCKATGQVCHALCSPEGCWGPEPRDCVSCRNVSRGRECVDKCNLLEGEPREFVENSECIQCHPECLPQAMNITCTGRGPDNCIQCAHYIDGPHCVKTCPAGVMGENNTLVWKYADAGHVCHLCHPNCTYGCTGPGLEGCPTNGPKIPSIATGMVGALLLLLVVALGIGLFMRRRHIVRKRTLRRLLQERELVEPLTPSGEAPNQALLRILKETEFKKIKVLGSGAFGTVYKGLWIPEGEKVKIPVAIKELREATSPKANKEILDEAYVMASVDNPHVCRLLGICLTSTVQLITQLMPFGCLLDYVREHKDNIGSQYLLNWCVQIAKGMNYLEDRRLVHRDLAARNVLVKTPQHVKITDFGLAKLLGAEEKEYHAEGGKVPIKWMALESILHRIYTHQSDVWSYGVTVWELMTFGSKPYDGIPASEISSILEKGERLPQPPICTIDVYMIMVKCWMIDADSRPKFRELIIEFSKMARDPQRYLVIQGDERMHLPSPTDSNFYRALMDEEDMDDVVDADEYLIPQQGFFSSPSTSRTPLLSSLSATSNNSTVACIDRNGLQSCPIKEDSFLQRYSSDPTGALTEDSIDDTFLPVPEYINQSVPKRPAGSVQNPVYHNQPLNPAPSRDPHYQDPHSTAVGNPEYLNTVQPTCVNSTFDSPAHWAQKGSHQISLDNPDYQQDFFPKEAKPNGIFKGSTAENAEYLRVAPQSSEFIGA

Sequence of Vascular endothelial growth factor receptor 2 (P35968 whole entry, the tested form may be a part): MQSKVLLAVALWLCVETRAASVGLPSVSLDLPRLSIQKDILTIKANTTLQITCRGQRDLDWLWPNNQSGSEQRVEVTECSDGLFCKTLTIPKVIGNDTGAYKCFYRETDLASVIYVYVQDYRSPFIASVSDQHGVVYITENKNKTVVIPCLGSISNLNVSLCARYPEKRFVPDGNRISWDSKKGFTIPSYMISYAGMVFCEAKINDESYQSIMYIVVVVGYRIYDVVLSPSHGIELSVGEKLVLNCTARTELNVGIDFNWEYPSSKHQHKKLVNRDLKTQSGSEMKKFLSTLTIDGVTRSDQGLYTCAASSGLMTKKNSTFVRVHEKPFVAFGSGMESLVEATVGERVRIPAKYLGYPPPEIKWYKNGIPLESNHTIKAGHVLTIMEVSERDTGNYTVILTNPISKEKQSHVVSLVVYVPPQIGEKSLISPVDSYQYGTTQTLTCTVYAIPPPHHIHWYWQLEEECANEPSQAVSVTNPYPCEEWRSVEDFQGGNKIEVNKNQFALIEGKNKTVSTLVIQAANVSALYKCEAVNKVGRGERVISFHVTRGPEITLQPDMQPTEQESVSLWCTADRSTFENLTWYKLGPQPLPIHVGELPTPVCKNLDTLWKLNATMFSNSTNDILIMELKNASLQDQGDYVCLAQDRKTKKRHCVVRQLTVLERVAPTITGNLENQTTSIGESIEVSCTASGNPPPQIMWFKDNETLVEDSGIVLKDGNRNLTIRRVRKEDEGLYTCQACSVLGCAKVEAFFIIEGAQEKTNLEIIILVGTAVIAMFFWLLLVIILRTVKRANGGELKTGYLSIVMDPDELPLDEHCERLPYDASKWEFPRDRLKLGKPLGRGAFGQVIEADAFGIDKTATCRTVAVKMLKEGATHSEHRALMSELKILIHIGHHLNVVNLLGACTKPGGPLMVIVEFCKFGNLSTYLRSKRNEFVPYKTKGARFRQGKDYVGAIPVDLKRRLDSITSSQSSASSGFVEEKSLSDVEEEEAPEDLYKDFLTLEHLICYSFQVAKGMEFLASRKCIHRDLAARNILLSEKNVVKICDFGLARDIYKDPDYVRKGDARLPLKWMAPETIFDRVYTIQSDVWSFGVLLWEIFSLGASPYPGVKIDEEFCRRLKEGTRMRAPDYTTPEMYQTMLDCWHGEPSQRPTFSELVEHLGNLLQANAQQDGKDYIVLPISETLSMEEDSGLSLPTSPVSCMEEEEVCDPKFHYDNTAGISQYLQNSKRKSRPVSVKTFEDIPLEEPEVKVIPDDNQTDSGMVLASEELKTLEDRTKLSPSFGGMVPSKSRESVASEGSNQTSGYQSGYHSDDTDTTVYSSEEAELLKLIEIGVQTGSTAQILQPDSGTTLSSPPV

Compound: COC(=O)CNC(=O)c1ccc(Nc2ncnc3cc(OCCN4CCCCC4)c(OC)cc23)cc1
- IC50 [1]: > 50 µM
- IC50 [2]: 8.39 µM
- IC50 [3]: > 50 µM
- IC50 [4]: 0.966 µM

Compound: COc1cc2c(Nc3ccc(NC(=O)Nc4ccccc4)c(Cl)c3)ncnc2cc1OCCN1CCCCC1
- IC50 [5]: 0.212 µM
- IC50 [1]: > 50 µM
- IC50 [2]: > 50 µM
- IC50 [3]: > 50 µM
- IC50 [4]: 1.87 µM

Compound: COc1cc2c(Nc3ccc(NC(=O)Nc4ccc(C)c(C)c4)c(Cl)c3)ncnc2cc1OCCN1CCCCC1
- IC50 [5]: 0.817 µM
- IC50 [1]: 2.9 µM
- IC50 [2]: 1.27 µM
- IC50 [3]: 1.85 µM
- IC50 [4]: 0.018 µM

Compound: COc1cc2c(Nc3ccc(NC(=O)Nc4ccc(C)cc4)cc3)ncnc2cc1OCc1ccccc1
- IC50 [5]: > 10 µM
- IC50 [1]: 25.4 µM
- IC50 [2]: > 50 µM
- IC50 [3]: > 50 µM
- IC50 [4]: > 10 µM

Compound: COc1cc2c(Nc3ccc(NC(=O)Nc4ccc(Cl)cc4)cc3)ncnc2cc1OCCCN1CCN(C)CC1
- IC50 [5]: 0.235 µM
- IC50 [1]: 17.8 µM
- IC50 [2]: > 50 µM
- IC50 [3]: 28.7 µM
- IC50 [4]: 0.815 µM

Compound: COC(=O)CNC(=O)c1ccc(Nc2ncnc3cc(OCCCN4CCOCC4)c(OC)cc23)cc1
- IC50 [5]: 0.763 µM
- IC50 [1]: > 50 µM
- IC50 [2]: > 50 µM
- IC50 [3]: > 50 µM
- IC50 [4]: 0.404 µM

Compound: COc1cc2c(Nc3ccc(NC(=O)Nc4ccccc4C)c(Cl)c3)ncnc2cc1OCCCN1CCN(C)CC1
- IC50 [1]: > 50 µM
- IC50 [2]: 6.21 µM
- IC50 [3]: 4.81 µM
- IC50 [4]: 0.178 µM

Compound: COc1cc2c(Nc3ccc(NC(=O)Nc4cccc(Cl)c4)cc3)ncnc2cc1OCCCN1CCN(C)CC1
- IC50 [5]: 0.5 µM
- IC50 [1]: 8.16 µM
- IC50 [2]: 24.7 µM
- IC50 [3]: 22.9 µM
- IC50 [4]: 0.588 µM

Compound: COC(=O)CNC(=O)c1ccc(Nc2ncnc3cc(OCCCN4CCN(C)CC4)c(OC)cc23)cc1
- IC50 [5]: 0.611 µM
- IC50 [1]: > 50 µM
- IC50 [2]: > 50 µM
- IC50 [3]: > 50 µM
- IC50 [4]: 0.275 µM

Compound: COc1cc2c(Nc3ccc(NC(=O)Nc4ccc(Cl)cc4)c(Cl)c3)ncnc2cc1OCCCN1CCN(C)CC1
- IC50 [5]: 0.001 µM
- IC50 [1]: 28 µM
- IC50 [2]: > 50 µM
- IC50 [3]: 20.7 µM
- IC50 [4]: 0.279 µM

Compound: COc1cc2c(Nc3ccc(NC(=O)Nc4ccc(C)c(C)c4)cc3)ncnc2cc1OCc1ccccc1
- IC50 [5]: > 10 µM
- IC50 [1]: 49.6 µM
- IC50 [2]: > 50 µM
- IC50 [3]: > 50 µM
- IC50 [4]: > 10 µM

Compound: COc1cc2c(Nc3ccc(NC(=O)Nc4ccc(Cl)cc4)cc3)ncnc2cc1OCc1ccccc1
- IC50 [5]: > 10 µM
- IC50 [1]: 38.8 µM
- IC50 [2]: > 50 µM
- IC50 [3]: > 50 µM
- IC50 [4]: > 10 µM

Compound: COc1cc2/c(=N/c3ccc(Br)cc3F)nc[nH]c2cc1OCC1CCN(C)CC1 [VANDETANIB]
- IC50 [1]: 37.1 µM
- IC50 [2]: 11.8 µM
- IC50 [3]: 18.9 µM

Compound: COc1cc2c(Nc3ccc(NC(=O)Nc4cccc(Cl)c4)cc3)ncnc2cc1OCc1ccccc1
- IC50 [5]: 4.65 µM
- IC50 [1]: > 50 µM
- IC50 [2]: > 50 µM
- IC50 [3]: > 50 µM
- IC50 [4]: > 10 µM

Compound: COc1cc2c(Nc3ccc(NC(=O)Nc4ccccc4)c(Cl)c3)ncnc2cc1OCCCN1CCN(C)CC1
- IC50 [5]: 0.014 µM
- IC50 [1]: 33 µM
- IC50 [2]: > 50 µM
- IC50 [3]: 17.3 µM
- IC50 [4]: 0.261 µM

Compound: COc1cc2c(Nc3ccc(NC(=O)Nc4ccccc4)cc3)ncnc2cc1OCc1ccccc1
- IC50 [5]: 2.93 µM
- IC50 [1]: > 50 µM
- IC50 [2]: 22.8 µM
- IC50 [3]: > 50 µM
- IC50 [4]: > 10 µM

Compound: COc1cc2c(Nc3ccc(NC(=O)Nc4ccc(C)c(C)c4)cc3)ncnc2cc1OCCCN1CCN(C)CC1
- IC50 [5]: 0.668 µM
- IC50 [1]: 22 µM
- IC50 [2]: 36.5 µM
- IC50 [3]: 25.9 µM
- IC50 [4]: 0.214 µM

Compound: COc1cc2c(Nc3ccc(NC(=O)Nc4ccc(F)c(Cl)c4)c(Cl)c3)ncnc2cc1OCCCN1CCN(C)CC1
- IC50 [5]: 0.078 µM
- IC50 [1]: 12.1 µM
- IC50 [2]: 3.2 µM
- IC50 [3]: 6.41 µM
- IC50 [4]: 0.014 µM

Compound: COc1cc2c(Nc3ccc(NC(=O)Nc4ccccc4)cc3)ncnc2cc1OCCCN1CCN(C)CC1
- IC50 [5]: 0.194 µM
- IC50 [1]: 28.4 µM
- IC50 [2]: 29.1 µM
- IC50 [3]: 49.4 µM
- IC50 [4]: 0.576 µM

Compound: COc1cc2c(Nc3ccc(NC(=O)Nc4ccccc4C)cc3)ncnc2cc1OCc1ccccc1
- IC50 [5]: > 10 µM
- IC50 [1]: 23.9 µM
- IC50 [2]: > 50 µM
- IC50 [3]: 28.8 µM
- IC50 [4]: > 10 µM

Compound: COc1cc2c(Nc3ccc(NC(=O)Nc4ccc(C)c(C)c4)c(Cl)c3)ncnc2cc1OCCCN1CCN(C)CC1
- IC50 [5]: 0.001 µM
- IC50 [1]: 26 µM
- IC50 [2]: 7.28 µM
- IC50 [3]: 1.76 µM
- IC50 [4]: 0.079 µM

Compound: COc1cc2c(Nc3ccc(NC(=O)Nc4ccc(C)c(C)c4)c(Cl)c3)ncnc2cc1OCCCN1CCOCC1
- IC50 [5]: 0.051 µM
- IC50 [1]: 3.52 µM
- IC50 [2]: 2.63 µM
- IC50 [3]: 7.29 µM
- IC50 [4]: 0.014 µM

Compound: COc1cc2c(Nc3ccc(NC(=O)Nc4ccc(Cl)cc4)c(Cl)c3)ncnc2cc1OCCN1CCCCC1
- IC50 [5]: > 10 µM
- IC50 [1]: 5 µM
- IC50 [2]: 1.89 µM
- IC50 [3]: 4.38 µM
- IC50 [4]: > 10 µM

Compound: COc1cc2c(Nc3ccc(NC(=O)Nc4ccccc4C)cc3)ncnc2cc1OCCCN1CCN(C)CC1
- IC50 [5]: 0.502 µM
- IC50 [1]: 22.3 µM
- IC50 [2]: 32.2 µM
- IC50 [3]: > 50 µM
- IC50 [4]: 1.99 µM

Compound: COc1cc2c(Nc3ccc(NC(=O)Nc4ccc(Cl)cc4)c(Cl)c3)ncnc2cc1OCCCN1CCOCC1
- IC50 [5]: 0.017 µM
- IC50 [1]: 28 µM
- IC50 [2]: 39.2 µM
- IC50 [3]: 22 µM
- IC50 [4]: 0.528 µM
